Laboratory results reported in patent US7173021B2, “Synthesis of temozolomide esters as potent anticancer pro-drugs for topical and transdermal applications in treatments of cancers” (Tianjin North Pharm Sci-Tech Co., Ltd., priority 2004, dated 2007).
In brackets after ≈: the same amount, converted by molar mass.

What was measured:
[1] = tested on: MV3 (human melanoma); assay: In vitro tumour cell growth inhibition (MTT), MV3; assay type: cell-based; settings: Homo sapiens, 96 h
Description: (§1) Temozolomide (white powder), temozolomide acid (white powder) and temozolomide-8-carboxylate hexyl (white scale crystal) were made in house. For the estimation of in vitro tumour cell growth inhibition, MV3 (human melanoma), M14 (human melanoma), B16 and B16-BL6 (mouse melanoma), SHG-44, TJ899 and TJ905 (human glioma), MCF-7 (human breast), HCT-8 (human colon), A549 (human non small lung), Bel7402 (human hepatocellulor), and BGC-823 (human stomach) were used. All tumour cells were cultured in RPMI-1640 medium supplemented with 10% fetal bovine serum (FBS) at 37° C. in a humidified 5% CO2 incubator.
(§2) After being harvested from culture flasks, a cell suspension of 1×10^4/ml was made by using 1640 RPMI medium supplemented with 10% fetal bovine serum. 100 μl (contains 1000 tumour cells) of the cell suspension was seeded per well of 96-well flat-bottom Costar culture plates at 37° C. in a humidified 5% CO2 incubator for 24 hrs before introducing drugs. Each tested compounds was made for five different concentrations and 100 μl of the each concentration was introduced into parallel three wells; control wells were added with 100 μl of plain medium alone; fluorouracil (a chemotherapeutic antitumour drug) was used as the positive control. Cells were then incubated for 96 h. Proliferative response and cell death were determined using MTT (3-(4,5-dimethylthiazolyl)-2,5-diphenyl-tetrazolium bromide) assay.
(§3) MTT assay: Following incubation of cells with the tested compounds for 96 h, 100 μl of 0.4 mg/ml MTT in RPMI 1640 was added to each well and the plate was incubated at 37° C. for 4 h. The plate was then centrifuged and followed by removal of medium. 150 μl of DMSO was then added to dissolve formazan crystal. DMSO-added plates were placed on a plate shaker for 5 min and absorbance was measured spectrophotometrically at 540 nm (with reference wavelength at 450 nm) using a Benchmark microtiter plate reader (Bio-Rad 550, Bio-Rad Laboratories, CA, U.S.A.).
(§4) The IC50 was calculated from the curve of the tested compound concentrations against the inhibition rate of the tumour cells. Table 1 summarized the experiment results by using six human cancer cell lines, HCT-8 (colon carcinoma), A549 (non small lung carcinoma), MCF-7 (breast), Bel7402 (hepatocellulor carcinoma), BGC-823 (stomach adenocarcinoma), and MV3 (melanoma). Table 2 summarized the results from the experiment results by using two human melanoma cell lines, MV3 and M14, two mouse melanoma cell lines, B16 and B16-BL6, and three human glioma cell lines, TJ899, SHG-44 and TJ905.

[2] = tested on: TJ905 (human glioma); assay: In vitro tumour cell growth inhibition (MTT), TJ905; assay type: cell-based; settings: Homo sapiens, Table 2 experiment, 96 h
Description: as §1, §2, §3, §4

[3] = tested on: Bel7402 (human hepatocellulor); assay: In vitro tumour cell growth inhibition (MTT), Bel-7402; assay type: cell-based; settings: Table 1 experiment, 96 h
Description: as §1, §2, §3
(§5) The IC50 was calculated from the curve of the tested compound concentrations against the inhibition rate of the tumour cells. […]

[4] = tested on: BGC-823 (human stomach); assay: In vitro tumour cell growth inhibition (MTT), BGC-823; assay type: cell-based; settings: Table 1 experiment, 96 h
Description: as §1, §2, §3, §5

[5] = tested on: B16 (mouse melanoma); assay: In vitro tumour cell growth inhibition (MTT), B16; assay type: cell-based; settings: Mus musculus, Table 2 experiment, 96 h
Description: as §1, §2, §3, §4

[6] = In vitro permeation and metabolism, Franz diffusion cell, human skin; assay type: in vitro ADME
Source text: (§6) Jacketed Franz-type diffusion cells were used throughout the study and the barrier (12) (skin or silicone membrane) was mounted between the two chambers (14, 16) (2.8–3.4 cm^2 available surface area) with the dermal side in contact with the receiver solution (FIG. 2). The diffusion chambers (10) comprised a barrier of skin or silicone membrane (12) mounted between two chambers (14, 16). A cap (18) formed the donor compartment (14). The second receptor compartment (16) contained a receptor cell (20) with a stirring bar (22), sampling port (24) and cover (26). The stirring bar (22) was stirred by means of a magnet plate (28) having a rotating magnet. The receptor compartment comprised a water jacket (30) having a water inlet (32) and a water outlet (34).
(§7) Three types of materials were used in permeation studies. • 1. Silicone membrane (Silastic Medical Grade, 500-5, Dow Corning 0.005 in thick) was cut into circular sections (2 cm diameter) and washed with double distilled water prior to use. • 2. Full-thickness rat skin was obtained from Male Wistar rats aged 10 to 12 weeks and weighing 250 to 300 g, which were sacrificed by cervical dislocation, the abdomen shaved and the intact skin removed by dissection. Following removal of fat tissue, the skin was cut into circular pieces and used immediately. • 3. Samples of adult human epidermis were purchased from the Stephen Kirby Skin Bank (UK). The samples were from the leg, were stored at −18° C. and used within one week. Experiments
The membrane (as detailed above) was mounted on the diffusion cell (10), on which the surface area available for diffusion of each cell was about 2.8–3.4 cm^2. The cell cap (18) was placed on the membrane (12), and it was sealed with Parafilm® connecting the cell cap, membrane, and receptor cell. […] The concentration of each sample solution was determined by using HPLC. […]
As stated above, after the removal of receptor solution, the receiver compartment was refilled with an identical volume of receptor fluid. […] As a consequence, it was necessary to mathematically correct each successive sample concentrations, in the present invention, which was determined by applying the following equation:
(§8) [formula] where Ct is the actual current concentration of drug in the receptor phase at time t, Cmt is the apparent (i.e. measured) current concentration of drug in the receptor phase, Vs is the sample volume withdrawn for analysis, Vr is the volume of receptor solution, and ΣCm is the summed total of the previous measured concentrations.
(§9) Finally, the amount of drug penetrating the skin per unit area was calculated by dividing the obtained concentrations by the surface area available for diffusion cell and this value was different for each individual cell. […]

[7] = In vitro permeation, Franz diffusion cell, silicone membrane; assay type: in vitro ADME; settings: 37° C., 8 h, FIGS. 3-5
Source text: as §6, §7
The membrane (as detailed above) was mounted on the diffusion cell (10), on which the surface area available for diffusion of each cell was about 2.8–3.4 cm^2. The cell cap (18) was placed on the membrane (12), and it was sealed with Parafilm® connecting the cell cap, membrane, and receptor cell. The capacity of each receptor cell was around 25–26 ml, which was filled with receptor solution and was completely in contact with the membrane sheet. During the course of experiment, the solution was continuously stirred by teflon-coated magnetic bar (22) placed in the cell (20). The temperature was maintained at 37° C. by a thermostatic water pump that circulated the water through the jacket (30) surrounding the cell body. The system was allowed to equilibrate under these conditions for half an hour. Finally, the prepared sample solution (2 ml) was added into the donor cap cell, and it was sealed with Parafilm® to minimize the evaporation of donor solution. 1 ml of receptor solution was removed every 30 minutes for 5 hours and then every 60 minutes for a further 3 hours. The volumes withdrawn were always replaced with equal volumes of fresh receptor solution to maintain constant volume. The concentration of each sample solution was determined by using HPLC.
For every sample, six determinations were performed on human and rat skin, and three determinations were carried out through artificial silicone membrane.
As stated above, after the removal of receptor solution, the receiver compartment was refilled with an identical volume of receptor fluid. This causes of the dilution of receptor solution leading to an under determination of the sample concentration. As a consequence, it was necessary to mathematically correct each successive sample concentrations, in the present invention, which was determined by applying the following equation:
as §8, §9

[8] = tested on: M14 (human melanoma); assay: In vitro tumour cell growth inhibition (MTT), M14; assay type: cell-based; settings: Homo sapiens, Table 2 experiment, 96 h
Description: as §1, §2, §3, §4

CCCCCCOC(=O)c1ncn2c(=O)n(C)nnc12 [temozolomide hexyl ester, Hexyl 3,4-dihydro-3-methyl-4-oxoimidazo[5,1-d]-1,2,3,5-tetrazine-8-carboxylate]
IC50 ([1]; Table 1 experiment): 8.84 µg/mL (≈ 31.6 µM)
IC50 ([1]; Table 2 experiment (separate)): 25 µg/mL (≈ 89.5 µM)
IC50 [2]: > 100 µg/mL
IC50 [3]: 27.2 µg/mL (≈ 97.4 µM)
IC50 [4]: > 19.5 µg/mL
IC50 [5]: 28.3 µg/mL (≈ 101 µM)
Permeation through human skin ([6]; 37° C., FIG. 9): notably better than temozolomide
Metabolism within human skin to temozolomide acid ([6]; human skin): completely metabolized into the temozolomide acid
Permeation through synthetic silicone membrane [7]: passed through the membrane far more efficiently
IC50 [8]: > 100 µg/mL
